Test: Oral fluid concentrations of methylone (LC-MS/MS)
Assay type: in vivo, humans
Settings: 150 or 200 mg oral
Method: Methylone pharmacology was evaluated in a study designed as a randomized, double-blind, placebo-controlled, crossover clinical trial. Four pilot studies were conducted administering methylone at oral doses of 50 (n = 3), 100 (n = 6), 150 (n = 5), and 200 mg (n = 7). Participants attended 3 experimental sessions separated by a one-week wash-out period and received two doses of methylone (one dose per experimental session) compared to placebo, except in the last pilot study in which participants received one dose of methylone, compared to MDMA and placebo. However, in this manuscript, only the results corresponding to the highest methylone doses (n = 12; 150 and 200 mg; mean dose = 179.2 mg) are presented, to enable comparison with clephedrone self-administration. Participants were recruited by word of mouth in the volunteer database of the clinical pharmacology unit.
In both studies, oral fluid samples for the quantification of clephedrone and methylone concentration were collected using Salivette standard tubes. For clephedrone, oral fluid samples were collected at baseline, 0.50, 1, 1.5, 2, 3, 4, and 5 h, whereas for methylone, they were collected at baseline, 0.25, 0.50, 0.75, 1, 1.5, 2, 3, 4, 6, 8, and 10 h. After collection, all samples were centrifuged and stored frozen at −20 °C until analysis. Clephedrone oral fluid concentrations were determined using a previously validated gas chromatography coupled to mass spectrometry systems (GC-MS/MS). Methylone was quantified via liquid chromatography–tandem mass spectrometry (LC–MS/MS).
For oral fluid concentrations of clephedrone and methylone, only a descriptive analysis was performed to obtain the main pharmacokinetics data, including the maximum concentration (Cmax), the time required to reach maximum concentrations (Tmax), and AUC up to 5 h (AUC0–5h) for clephedrone and up to 6 h (AUC0–6h) for methylone. These parameters were calculated using the Pharmacokinetic Functions for Microsoft Excel (Joel Usansky, Atul Desai, and Diane Tang-Liu, Department of Pharmacokinetics and Drug Metabolism, Allergan, Irvine, CA, USA). […]

Structure (SMILES): CNC(C)C(=O)c1ccc2c(c1)OCO2 (stereo not drawn) [Methylone, 3,4-methylenedioxy-N-methylcathinone]
- Oral fluid concentration at 6 h, times lower than Cmax (6 h): 11 times
- Cmax (human, oral fluid, n=12): 17200 ng/mL
- AUC(0-t) (human, oral fluid, n=12, read-out: Oral fluid AUC0–6 h): 44700 ng·h/mL

Source: publication PMC12785453, “Oral Fluid Concentrations and Pharmacological Effects of Clephedrone and Methylone in Humans” (International Journal of Molecular Sciences, 2025)
